Source: patent publication US20260001841A1, “PREPARATION OF STABLE PSILOCIN SALTS, ESTERS AND CONJUGATES AND USES THEREOF” (LOBE SCIENCES LTD., priority 2022, published 2026)
Several values for one entry are separate records, joined by “and”; a condition that tells them apart may be missing. Equal entries are not always repeated. Entries after “also recorded” stand apart in the source; their conditions may differ.

Key:
[1] = doses as low as 5 mg psilocybin (about 2 mg psilocin); cited from earlier work
[2] = psilocin from psilocybin dosing; cited from earlier work
[3] = Stability studies on psilocin mucate capsule (appearance, HPLC assay and impurities, TM-022-0392); format: physicochemical; settings: for Appearance, Packaging: Labeled, amber glass bottle with white closure containing 15 partially filled white opaque capsules / Appearance, Product: White to light brown powder partially filling white opaque capsules / Total Impurities TM-22-0392 / Impurities TM-22-0392, individual impurities / Assay TM-22-0392 (% Label Claim): capsule; for Assay TM-22-0392 (% Label Claim): specification 90.0-110.0%
Description: Additional stability studies were performed on psilocin mucate (also known as psilocin mucic acid salt or conjugate or psilocin galactaric acid salt or conjugate) capsule.
Appearance was evaluated by viewing of the sample on a watchglass over a black and white background.
Assay conditions for Test/Method TM-022-0392 assessing stability and impurities were as follows: • Mobile phase: MPA: 945 mL water, 5 mL H3PO4, PH to 5.7 with NaOH; MPB: Acetonitrile • Diluent: 80:20 Water:MeOH • Standard: 0.4 mg/mL Psilocin Mucic RS in Diluent • Sample: 0.4 mg/mL Psilocin Mucic API in Diluent HPLC Conditions are depicted in Table 3.
Calculations were against a bracketing external standard.
Identity of psilocin mucate was verified by ultraviolet (UV) assessment, wherein the UV spectrum of the main peak in the standard matched the UV spectrum of the main peak in the sample and by retention time wherein the retention time ratio was 0.98-1.02.

[4] = system: healthy subjects; assay: Phase one single-dose study of psilocin mucic acid conjugate capsules: psychiatrist mood assessment and mini mental state examination (MMSE); settings: single oral capsule, 4.05 mg conjugate equivalent to 2 mg psilocin

Compound: CN(C)CCc1c[nH]c2cccc(OP(=O)(O)O)c12 [psilocybin, Psilocybin]
- Adverse psychological effects reported [1]: hallucinogenic effects coupled with increased anxiety
- Estimated dose-normalized bioavailability [2]: 52.7%

Compound: psilocin mucate
- Time demonstrated to be stable [3]: at least 7 months
- Appearance, Packaging: Labeled, amber glass bottle with white closure containing 15 partially filled white opaque capsules ([3]; 7 Months): Conforms
- Appearance, Product: White to light brown powder partially filling white opaque capsules ([3]; 7 Months): Conforms
- Total Impurities TM-22-0392 ([3]; 7 Months): <0.05%
- Impurities TM-22-0392, individual impurities ([3]; 7 Months, all impurities): All <0.05%
- Assay TM-22-0392 (% Label Claim) ([3]; 7 Months): 101.7%
- Appearance, Packaging: Labeled, amber glass bottle with white closure containing 15 partially filled white opaque capsules ([3]; Initial): Conforms
- Appearance, Product: White to light brown powder partially filling white opaque capsules ([3]; Initial): Conforms
- Total Impurities TM-22-0392 ([3]; Initial): 0.08%
- Impurities TM-22-0392, individual impurities ([3]; Initial, impurity at RRT1.12): RRT1.12/0.08%
- Assay TM-22-0392 (% Label Claim) ([3]; Initial): 100.8%
- FEELING STATUS (mood assessed by psychiatrist) ([4]; one entry per subject (01-10)): Feel calm, less thoughts, happier mood; also recorded: Euphoric, better mood, it helps with life stress; also recorded: Euphories, better mood, sleepy, feel time is slower; also recorded: Sleepy, better thoughts, less worried in general; also recorded: Did not feel change in mood but feeling cold extremities; also recorded: More relaxed, want to drink sweet tea, better mood; also recorded: Better mood, feels hyper sexual; also recorded: Felt high mood, now they feel in good way,, they would love to; also recorded: Less anxious, better mood, increase their appetite; also recorded: Feel little beet happier, better energy
- MMSE score ([4]; one value per subject (01-10), scores expected below 25 with a hallucinogenic substance): 28 (3×) and 27 (2×) and 30 (3×) and 29 (2×)
